Assay results as given in patent US9790169B2, “IDO inhibitors” (BRISTOL-MYERS SQUIBB COMPANY, priority 2015, dated 2017).

Molecular target: human IDO1 (Homo sapiens, UniProt P14902)
Test: Assessment of human IDO-1 inhibitory activity in Hela cells (Interferon-gamma stimulated HeLa cells, Ehrlich reagent, absorbance 490 nm)
Format: cell-based
Design: endogenous in cells; host or cells: HeLa cells stimulated with interferon-gamma
Conditions: Hela Human IDO-1 cellular assay
Outline: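 HeLa cells pre-incubated with compound 1 h at 37 °C, then stimulated with human IFN-γ (10 ng/ml final) or murine IFN-γ (5 ng/ml final) for 18 h. Kynurenine read with Ehrlich reagent at 490 nm after TCA (3%) and 50 °C treatment; IC50 normalized to unstimulated (100%) and IFN-γ-only (0%) wells.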

Chain of human IDO1 (P14902 whole entry): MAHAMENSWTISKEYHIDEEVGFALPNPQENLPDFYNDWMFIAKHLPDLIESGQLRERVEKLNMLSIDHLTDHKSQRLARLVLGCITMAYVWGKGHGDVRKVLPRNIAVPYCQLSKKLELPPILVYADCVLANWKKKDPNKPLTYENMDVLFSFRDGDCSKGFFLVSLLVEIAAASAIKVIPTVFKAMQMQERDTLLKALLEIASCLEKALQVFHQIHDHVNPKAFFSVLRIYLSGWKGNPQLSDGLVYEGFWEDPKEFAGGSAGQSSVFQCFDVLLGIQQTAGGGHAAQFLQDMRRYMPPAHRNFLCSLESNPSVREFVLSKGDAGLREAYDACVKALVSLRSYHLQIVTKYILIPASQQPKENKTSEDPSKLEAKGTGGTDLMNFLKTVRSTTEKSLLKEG

IC50 [nM]	Molecule
< 50	CCOc1ncc(Nc2cc(C(CC)CC(=O)O)ccc2N(CC)C2CCOC2)cn1 (single isomer, unassigned) [Example 945 D1, 3-(3-((2-Ethoxypyrimidin-5-yl)amino)-4-(ethyl(tetrahydrofuran-3-yl)amino)phenyl)pentanoic acid]
< 50	CCC(CC(=O)O)c1ccc(N2CCC(C)CC2)c(Nc2ccc(C#N)cc2)c1 (single isomer, unassigned) [Example 41 Enantiomer 1, 3-(3-((4-Cyanophenyl)amino)-4-(4-methylpiperidin-1-yl)phenyl)pentanoic acid]
> 50	CCOc1ncc(Nc2cc(C(CC)CC(=O)O)ccc2N2CCOCC2)cn1 (single isomer, unassigned) [Example 7 Enantiomer 2, 3-(3-((2-Ethoxypyrimidin-5-yl)amino)-4-morpholinophenyl)pentanoic acid]
< 50	CCN(c1ccc(C(COC)CC(=O)O)cc1Nc1ccc(Cl)cc1)C1CCS(=O)(=O)CC1 (single isomer, unassigned) [Example 174, 3-(3-((4-chlorophenyl)amino)-4-((1,1-dioxidotetrahydro-2H-thiopyran-4-yl)(ethyl)amino)phenyl)-4-methoxybutanoic acid]
> 50	CCC(CC(=O)O)c1ccc(N2CCC(C)CC2)c(NC(=O)Nc2ccc(C)cc2)c1 (single isomer, unassigned) [Example 46 Enantiomer 1, 3-(4-(4-Methylpiperidin-1-yl)-3-(3-(p-tolyl)ureido)phenyl)pentanoic acid]
> 50	CCC(CC(=O)O)c1ccc(N2CCC(C)CC2)c(Nc2cnc(OC)nc2)c1 (single isomer, unassigned) [Example 42, 3-(3-((2-methoxypyrimidin-5-yl)amino)-4-(4-methylpiperidin-1-yl)phenyl)pentanoic acid]
> 50	CCCN(c1ccc(C(C)(C)CC(=O)O)cc1NC(=O)Nc1ccc(C#N)cc1)C1CCS(=O)(=O)CC1 [Example 190, 3-(3-(3-(4-Cyanophenyl)ureido)-4-((1,1-dioxidotetrahydro-2H-thiopyran-4-yl)(propyl)amino)phenyl)-3-methylbutanoic acid]
< 50	CCC(CC(=O)O)c1ccc(N(CCOC)C2CCOCC2)c(Nc2cnc(OC)nc2)c1 (single isomer, unassigned) [Example 1259, 3-(4-((2-methoxyethyl)(tetrahydro-2H-pyran-4-yl)amino)-3-((2-methoxypyrimidin-5-yl)amino)phenyl)pentanoic acid]
< 5	CC(C)CN(CC(C)C)c1ccc(C(C)(C)CC(=O)O)cc1Nc1ccc(Cl)cc1 [Example 145, 3-(3-((4-Chlorophenyl)amino)-4-(diisobutylamino)phenyl)-3-methylbutanoic acid]
< 50	CCN(c1ccc([C@H](CC(=O)O)C(F)(F)F)cc1NC(=O)Nc1ccc(C)cc1)C1CCOCC1 (single isomer, unassigned) [Example 1269]
> 50	(R)-3-(4-((1,1-dioxidotetrahydro-2H-thiopyran-4-yl)(ethyl)amino)- 3-((2-methoxypyrimidin-5- yl)amino)phenyl)-4- isopropoxybutanoic acid [Example 332]
< 50	CCc1ccc(Nc2cc(C(COC)CC(=O)O)cc(F)c2N(CC(C)C)CC(C)C)cc1 (single isomer, unassigned) [Example 922, 3-(4-(diisobutylamino)-3-((4-ethylphenyl)amino)-5-fluorophenyl)-4-methoxybutanoic acid]
< 50	CCCN(c1ccc(C(C)(C)CC(=O)O)cc1Nc1cnc(OC)nc1)C1CCOCC1 [Example 23, 3-(3-((2-methoxypyrimidin-5-yl)amino)-4-(propyl(tetrahydro-2H-pyran-4-yl)amino)phenyl)-3-methylbutanoic acid]
< 5	CCOc1ccc(Nc2cc([C@H](CC)CC(=O)O)ccc2N(CC)C2CCOCC2)cn1 (single isomer, unassigned) [Example 509]
< 50	CCN(c1ccc([C@@H](COC)CC(=O)O)cc1Nc1ccc(C#N)c(OCC(F)(F)F)c1)C1CCOCC1 (single isomer, unassigned) [Example 372]
> 50	(R)-3-(4-((1,1-dioxidotetrahydro-2H-thiopyran-4-yl)(ethyl)amino)- 3-((2-ethoxypyrimidin-5- yl)amino)phenyl)-4- isopropoxybutanoic acid [Example 333]
< 5	CCOc1cnc(Nc2cc([C@@H](CC)CC(=O)O)ccc2N(CC)C2CCOCC2)cn1 (single isomer, unassigned) [Example 465]
> 50	CCOc1ncc(Nc2cc([C@H](CC)Cc3cnco3)ccc2N(CC)C2CCOCC2)cn1 [Example 1335, (R)-N2-(2-Ethoxypyrimidin-5-yl)-N1-ethyl-4-(1-(oxazol-5-yl)butan-2-yl)-N1-(tetrahydro-2H-pyran-4-yl)benzene-1,2-diamine]
> 50	COCCN(c1ccc(C(C)(C)CC(=O)O)cc1NC(=O)Nc1ccc(C#N)cc1)C1CCOCC1 [Example 19, 3-(3-(3-(4-cyanophenyl)ureido)-4-((2-methoxyethyl)(tetrahydro-2H-pyran-4-yl)amino)phenyl)-3-methylbutanoic acid]

IC50 [nM]	Molecule
< 5	CCCN(c1ccc([C@H](CC)CC(=O)O)cc1Nc1ccc(Cl)cc1)C1CCOCC1 (single isomer, unassigned) [Example 552]
< 5	CCCN(c1ccc([C@H](CC)CC(=O)O)cc1Nc1cnc(OCC2CC2)nc1)C1CCOCC1 (single isomer, unassigned) [Example 554]
< 50	CCN(c1ccc([C@@H](CC(=O)O)C(F)(F)F)cc1NC(=O)Nc1ccc(C)cc1)C1CCOCC1 (single isomer, unassigned) [Example 1272]
< 50	COCC(CC(=O)O)c1ccc(N(C)C2CCOCC2)c(Nc2ccc(C#N)c(F)c2)c1 (single isomer, unassigned) [Example 875, 3-(3-((4-cyano-3-fluorophenyl)amino)-4-(methyl(tetrahydro-2H-pyran-4-yl)amino)phenyl)-4-methoxybutanoic acid]
< 50	CCOc1ncc(Nc2cc(C(CC)CC(=O)O)ccc2N(CCOC)C2CCOCC2)cn1 (single isomer, unassigned) [Example 1260, 3-(3-((2-ethoxypyrimidin-5-yl)amino)-4-((2-methoxyethyl)(tetrahydro-2H-pyran-4-yl)amino)phenyl)pentanoic acid]
< 50	CCCN(c1ccc([C@@H](COC)CC(=O)O)cc1NC(=O)Nc1ccc(Cl)cc1F)C1CCOCC1 (single isomer, unassigned) [Example 566]
> 50	CCOc1ncc(Nc2cc([C@H](CC)CC(N)=O)ccc2N(CC)C2CCOCC2)cn1 [Example 1332, (R)-3-(3-((2-Ethoxypyrimidin-5-yl)amino)-4-(ethyl(tetrahydro-2H-pyran-4-yl)amino)phenyl)pentanamide]
> 50	CCOc1ncc(Nc2cc([C@H](CC)CNS(=O)(=O)c3c(C)noc3C)ccc2N(CC)C2CCOCC2)cn1 [Example 1328, (S)-N-(2-(3-((2-ethoxypyrimidin-5-yl)amino)-4-(ethyl(tetrahydro-2H-pyran-4-yl)amino)phenyl)butyl)-3,5-dimethylisoxazole-4-sulfonamide]
< 5	CCC(CC(=O)O)c1ccc(N(CCOC)C2CCOCC2)c(Nc2ccc(Cl)cc2)c1 (single isomer, unassigned) [Example 1257 E1, 3-(3-((4-Chlorophenyl)amino)-4-((2-methoxyethyl)(tetrahydro-2H-pyran-4-yl)amino)phenyl)pentanoic acid]
< 50	CCC1COCCN1c1ccc([C@H](COC)CC(=O)O)cc1Nc1ccc(Cl)cc1 (single isomer, unassigned) [Example 1292]
> 50	COCC(CC(=O)O)c1ccc(N2C[C@@H](C)O[C@@H](C)C2)c(NC(=O)Nc2ccc(C#N)cc2)c1 (single isomer, unassigned) [Example 605 Diastereomer 1]
< 5	CC[C@@H](CC(=O)O)c1ccc(N(CC2CC2)CC(C)(C)O)c(Nc2ccc(Cl)cc2)c1 (single isomer, unassigned) [Example 267]
> 50	CC(CC(=O)O)c1ccc(N2C[C@@H](C)O[C@@H](C)C2)c(NC(=O)Nc2ccc(C#N)cc2)c1 (single isomer, unassigned) [Example 750]
< 50	COCC(CC(=O)O)c1ccc(N(C)C2CCOCC2)c(Nc2ccc(C#N)cc2)c1 (single isomer, unassigned) [Example 873, 3-(3-((4-Cyanophenyl)amino)-4-(methyl(tetrahydro-2H-pyran-4-yl)amino)phenyl)-4-methoxybutanoic acid]
< 50	CCN(c1ccc([C@@H](COC)CC(=O)O)cc1Nc1ccc(C#N)cn1)C1CCOCC1 (single isomer, unassigned) [Example 352]
> 50	CCC1COCCN1c1ccc([C@@H](COC)CC(=O)O)cc1Nc1ccc(C#N)cn1 (single isomer, unassigned) [Example 1283]
< 50	CCC(CC(=O)O)c1ccc(N2CC(O)(c3ccc(F)cc3)C2)c(Nc2ccc(C#N)cc2)c1 (single isomer, unassigned) [Example 1254, 3-(3-((4-cyanophenyl)amino)-4-(3-(4-fluorophenyl)-3-hydroxyazetidin-1-yl)phenyl)pentanoic acid]
> 50	CCC1COCCN1c1ccc([C@H](COC)CC(=O)O)cc1Nc1cnc(OC)nc1 (single isomer, unassigned) [Example 1290]

Molecule	IC50 [nM]
CCC(CC(=O)O)c1ccc(N(CC)C2CCN(Cc3ccccc3)CC2)c(Nc2ccc(C#N)cc2)c1 (single isomer, unassigned) [Example 940, 3-(4-((1-benzyl-piperidin-4-yl)(ethyl)amino)-3-((4-cyano-phenyl)amino)phenyl) pentanoic acid]	< 5
